Laboratory results from patent US5079260A, “Method for treating inflammation and compounds and compositions suitable for use therein” (Nova Pharmaceutical Corporation, priority 1990, dated 1992).

Tests used:
[1] = tested on: Ear Edema Caused by Arachidonic Acid; assay: Inhibition of Ear Edema Caused by Arachidonic Acid (I), Table 2; format: in vivo, CF-1 Mice; settings: dose not given in Example 4, sixty minutes
[2] = tested on: Ear Edema Caused by Xylene; assay: Inhibition of Ear Edema Caused by Xylene (I), Table 3; format: in vivo, CF-1 Mice; settings: 2 h
From the text: (§1) Such inflammatory agents typically include tetradecanoylphorbolacetate, arachidonic acid, xylene, capsaicin, oxazolone, carrageenan and the like. The reverse passive Arthus test offers another measure of the compound's utility in preventing an inflammatory response (Chang et al, Eur. J. Pharm. 69:155-164 (1981)). Test compounds are typically administered intraperitoneally or topically. For intraperitoneal administration, the test compound can be given in dimethyl sulfoxide or in 0.5% methylcellulose 30 minutes prior to administration of the irritant. For topical administration, the test compound can be dissolved in, for example, acetone, ethanol or dimethyl sulfoxide and applied about 15 minutes prior to application of the irritant. Results can be expressed as the percent decrease in swelling in the compound-treated animals as compared to control animals that receive only the irritant.
Inhibition of Ear Edema Caused by Xylene (I)
CF-1 Mice, 25-30 g body weight, six animals per group, were used. Test compounds (compounds of Formula I where X is oxygen, R3, R4, A and B are hydrogen and Q is as indicated in Table 3) were administered intraperitoneally (100 mg/kg) or topically as follows. For intraperitoneal administration, the test compound was dissolved in DMSO or 0.5% methylcellulose and 100 μl was injected 30 minutes prior to irritant. For topical administration, test compound was dissolved in either acetone, ethanol or dimethyl sulfoxide and 5 μl (10 μg) applied to the upper surface (1 cm^2) of the ear and an additional 5 μl (10 μg) applied to the lower surface (1 cm^2) of the ear fifteen minutes prior to application of the irritant. The irritant, xylene, was added to the surface of the ear, 20 μl added to the upper surface and 20 μl to the lower surface. After two hours, the thickness of the ear was measured to 0.01 mm by a micrometer with loose drag positioned at the lateral-most edge of the mid-point of the pinna. Data were calculated as the inhibition by the test compound of increased ear thickness compared to that of control animals receiving only the irritant.

[3] = tested on: Ear Edema Caused by Capsaicin; assay: Inhibition of Ear Edema Caused by Capsaicin, Table 4; format: in vivo, CF-1 Mice
From the text: as §1
Inhibition of Ear Edema Caused by Capsaicin
CF-1 Mice, 25-30 g body weight, six animals per group, were used. […] After thirty minutes, the thickness of the ear was measured to 0.01 mm by a micrometer with loose drag positioned at the lateral-most edge of the mid-point of the pinna. Data were calculated as the inhibition by the test compound of increased ear thickness compared to control animals receiving only the irritant.

[4] = tested on: Reverse Passive Artus Reaction; assay: Reverse Passive Artus Reaction (I), Table 6; format: in vivo, Male CD rats; settings: inhibition of blueing; i.p., 100 mg/kg, one hour before antigen
From the text: as §1
Reverse Passive Artus Reaction (I)
Male CD rats weighing between 200 and 250 g were used. Test compounds (compounds of Formula I where X is oxygen, R3, R4, A and B are hydrogen and Q is as indicated in Table 6) were dissolved in dimethyl sulfoxide and 200 μl of this solution (100 mg/kg) were injected intraperitoneally one hour before administration of the antigen. The animals were anesthetized inhalationally with isoflurane and then were injected through the penile vein with 1 ml of a solution of 2.5 mg of Evan's blue dye and 5.0 mg of human serum albumin in 1 ml of saline. This treatment was followed immediately by intracutaneous injections of 0.03 ml of anti-human albumin diluted to contain 3.65 mg of antibody at 3 sites along the midline back. Anesthesia was terminated and after three hours the animals were sacrificed. The skin was removed and the blue stained areas cut out. […] The tube contents were agitated and centrifuged, and the absorbance of the supernatant liquid was measured at 620 nm. The data were calculated as inhibition of blueing by test compound compared to control animals receiving only antigen and antibody.

[5] = tested on: Ear Edema Caused by Tetradecanoylphorbolacetate; assay: Inhibition of Ear Edema Caused by Tetradecanoylphorbolacetate (I), Table 1; format: in vivo, CF-1 Mice
From the text: as §1
Inhibition of Ear Edema Caused by Tetradecanoylphorbolacetate (I)
CF-1 Mice, 25-30 g body weight, six animals per group, were used. Test compounds (compounds of Formula I where X is oxygen, R3, R4, A and B are hydrogen and Q is as indicated in Table 1) were administered intraperitoneally (100 mg/kg) or topically as follows. For intraperitoneal administration, the test compound was dissolved in dimethyl sulfoxide or 0.5% methylcellulose and 100 μl was injected 30 minutes prior to irritant (100 mg/kg, i.p.). For topical administration, the test compound was dissolved in either acetone, ethanol or dimethyl sulfoxide and 5 μl (100 μg) applied to the upper surface (1 cm^2) of the ear and an additional 5 μl (100 μg) applied to the lower surface (1 cm^2) of the ear fifteen minutes prior to application of the irritant. A solution of the irritant, tetradecanoylphorbolacetate, 200 μg/ml, was added to the surface of the ear, 5 μl added to the upper surface and 5 μl to the lower surface. After three hours, the thickness of the ear was measured to 0.01 mm by a micrometer with loose drag positioned at the lateral-most edge of the mid-point of the pinna. Data were calculated as the inhibition by the test compound of increased ear thickness compared to control animals receiving only the irritant.

[6] = tested on: Ear Edema Caused by Oxazolone; assay: Inhibition of Ear Edema Caused by Oxazolone (I), Table 5; format: in vivo, CF-1 Mice; settings: i.p., 100 mg/kg, 30 min before irritant; sensitized mice; 24 h
From the text: as §1
Inhibition of Ear Edema Caused by Oxazolone (I)
CF-1 Mice, 25-30 g body weight, six animals per group, were used. The mice were sensitized to the irritant two weeks prior to the test by dribbling 100 μl of a 3% solution of oxazolone in acetone onto the abdominal skin of the animal. Test compounds (compounds of Formula I where X is oxygen, R3, R4, A and B are hydrogen and Q is as indicated in Table 5) were administered intraperitoneally as follows. The test compound was dissolved in DMSO or 0.5% methylcellulose and 100 μl (100 mg/kg) was injected 30 minutes prior to irritant. The irritant, 3% oxazolone in acetone, was added to the surface of the ear, 5 μl added to the upper surface and 5 μl to the lower surface. After twenty four hours, the thickness of the ear was measured to 0.01 mm by a micrometer with loose drag positioned at the lateral-most edge of the mid-point of the pinna. Data were calculated as the inhibition by the test compound of increased ear thickness compared to control animals receiving only the irritant.

[7] = tested on: Ear Edema Caused by Arachidonic Acid; assay: Inhibition of Ear Edema Caused by Arachidonic Acid (I), Table 2; format: in vivo, CF-1 Mice; settings: i.p., 100 mg/kg; ear thickness at sixty minutes
From the text: as §1
Inhibition of Ear Edema Caused by Arachidonic Acid (I)
CF-1 Mice, 25-30 g body weight, six animals per group, were used. Test compounds (compounds of Formula I where X is oxygen, R3, R4, A and B are hydrogen and Q is as indicated in Table 2) were administered intraperitoneally (100 mg/kg) as follows. For intraperitoneal administration, test compound was dissolved in DMSO or 0.5% methylcellulose and 100 μl was injected 30 minutes prior to i.p. administration of 100 mg/kg of arachidonic acid. A solution of the irritant, arachidonic acid, 100 mg/ml in ethanol, was added to the surface of the ear, 5 μl added to the upper surface and 5 μl to the lower surface. After sixty minutes, the thickness of the ear was measured to 0.01 mm by a micrometer with loose drag positioned at the lateral-most edge of the mid-point of the pinna. Data were calculated as the percent inhibition by the test compound of increased ear thickness compared to control animals receiving only the irritant.

## CC(C)C[C@H](NC(=O)OCC1c2ccccc2-c2ccccc21)C(=O)O [L-Leucine, N-[(9H-Fluoren-9-ylmethoxy)carbonyl]-L-leucine]
[1]
  % Inhibition, topical: 41%
[2]; i.p., 100 mg/kg, 30 min before irritant
  % Inhibition Intraperitoneal: 47%
[2]; topical, 10 μg upper + 10 μg lower ear surface, 15 min before irritant
  % Inhibition, topical: 66%
[3]; i.p., 100 mg/kg, 30 min before irritant, ear thickness at thirty minutes
  % Inhibition Intraperitoneal: 74%
[4]
  % Inhibition Intraperitoneal: 48%
[5]; i.p., 100 mg/kg, 30 min before irritant, ear thickness at 3 h
  % Inhibition Intraperitoneal: 54%
[5]; topical, 100 μg upper + 100 μg lower ear surface, 15 min before irritant, 3 h
  % Inhibition, topical: 41%
[6]
  % Inhibition Intraperitoneal: 58%
[7]
  % Inhibition Intraperitoneal: 62%

## D-Pro^2 -D-Trp^7.9 -Substance P [reference compound]
[2]; Reference Standard, 100 μg/ear
  % Inhibition Intraperitoneal: 44%
[3]; Reference Standard, 100 μg/ear, thirty minutes
  % Inhibition Intraperitoneal: 34%
